Experimental data taken from PMC7595621, “Quorum sensing N-Acyl homoserine lactones are a new class of anti-schistosomal” (PLoS Neglected Tropical Diseases, 2020).
Values after ≈ are worked out from the molar mass of the structure shown. Like-named read-outs stand apart in the source and are kept apart here.

Assays:
[1] = tested on: S. mansoni schistosomula; assay: Screening of S. mansoni schistosomula (Roboworm, motility and phenotype); assay type: cell-based, Schistosoma mansoni; settings: for Selectivity index, schistosomula motility: HepG2 CC50 / schistosomula motility EC50; for Selectivity index, schistosomula phenotype: HepG2 CC50 / schistosomula phenotype EC50; for EC50: Schistosoma mansoni, average across motility and phenotype, read-out: average EC50 for phenotype and motility, schistosomula; for concentrations at which schistosomula phenotype was affected / concentrations at which schistosomula motility was affected: titration 10 to 0.625 μM; for concentrations at which schistosomula phenotype was affected: hit below -0.15; for concentrations at which schistosomula motility was affected: hit below -0.35
Protocol: Biomphalaria glabrata (NMRI and the previously described pigmented strains) snails infected with S. mansoni (Puerto Rican strain) were shed for 2 hrs under light at 26 °C. Cercariae were collected, mechanically transformed into schistosomula and subsequently prepared for high throughput screening (HTS) on the Roboworm platform as previously described. Schistosomula were cultured in Basch Media (composed of BME media, 10% M169 media, 0.5x MEM vitamins, 10% Schneider’s insect media, 15.6mM Hepes, 5% heat inactivated FBS, 2x Antibiotic/anti-mycotic (Sigma-Aldrich, UK) solution (final concentrations shown)).
EC50 values were calculated from the titrated concentrations by non-linear regression, after log transformation of concentrations and data normalization using GraphPad Prism 7.02.
Fig 2 Anti-schistosomula activity of the eight analogues compared to parent compound 1. […] Test plates were incubated at 37°C for 72 hrs in an atmosphere containing 5% CO2. At 72hrs, schistosomula were scored using the Roboworm platform for both motility (A) and phenotype (B). Any compound that induced a score of below -0.35 for motility (A) and -0.15 for phenotype (B) were considered a hit. Black squares indicate the most positive effect on motility or phenotype; grey scale from dark grey to lighter shades of grey indicates a progressive reduced compound efficacy; white squares indicate no effect on either phenotype or motility. Z´ values for this screen was 0.41741 for motility and 0.57275 for phenotype. (C) Phenotypes of schistosomula when treated with 10μM of each of the test compounds and controls.
Supplementary file pntd.0008630.s003.tif: S1 Fig Initial schistosomula screens of the 14 compounds and their intermediate analogues. […] Test plates were incubated at 37°C for 72 hrs in an atmosphere containing 5% CO2. At 72hrs, schistosomula were scored using the Roboworm platform for both motility and phenotype as previously described. A) Of the 14 compounds evaluated, two fell within the hit region. Z’ scores for motility and phenotype were 0.40079 and 0.56846 respectively. […] Z´ scores for motility and phenotype were 0.37864 and 0.47882 respectively. *Average EC50 value across motility and phenotype is presented for each compound. (TIF) Click here for additional data file.

[2] = tested on: adult S. mansoni worm pairs; assay: Screening of adult S. mansoni blood flukes (7-week worms), WHO-TDR motility scoring; assay type: cell-based, Schistosoma mansoni; settings: for Selectivity index, adult worm female: HepG2 CC50 / adult female EC50; for Selectivity index, adult worm male: HepG2 CC50 / adult male EC50; for EC50: Schistosoma mansoni
Protocol: (§1) Adult S. mansoni parasites were recovered by hepatic portal vein perfusion from TO outbred mice (HsdOla:TO, Tuck-Ordinary, Envigo, UK) that were percutaneously infected seven weeks earlier with 180 cercariae. Three adult worm pairs per well, in duplicate, were transferred into 48 well plates (Fisher Scientific, Loughborough, UK) and cultured at 37 °C in an atmosphere containing 5% CO2 in DMEM (Gibco, Paisley, UK) containing 10% v/v HEPES, 10% v/v Foetal Bovine Serum (FBS), 0.7% v/v 200 mM L-Glutamine and 1X v/v penicillin-streptomycin. Worms were dosed with test compounds at 20 μM, 10 μM, 5 μM, 2.5 μM, 1.25 μM and 0.625 μM (in 0.2% DMSO) for 72 hr. Adult worms were scored manually at 72 hr using the WHO-TDR metric scoring system as described previously. Dose response curves and EC50 values were obtained by non-linear regression, after log transformation of concentrations and data normalization using GraphPad Prism 7.02. At 72 hr, the medium from each well was also collected, centrifuged at 350 x g for 2 min. Afterwards, the supernatant was removed, and the remaining egg pellet re-suspended in 10% v/v formalin. Eggs that were oval and contained a fully formed lateral spine were subsequently counted.
(§2) Fig 3 Adult schistosome motility and egg production are differentially affected by the nine N-acyl homoserine lactones. […] Parasite motility was evaluated for each sex and scored using the WHO-TDR scoring system (0 = Dead parasite, 4 = Normal/Healthy movement). B) Culture media were collected from some adult co-cultures at 72 hrs and eggs present in the media were counted. p values are indicated as follows: * <0.05, ** <0.01, *** <0.001.
Initially, these screens were conducted at 20 μM; any compounds that scored a 1 or 0 for motility at this primary concentration were further titrated until no further effect was observed. […] Similar to the schistosomula assays, the differences observed in adult parasite motility when treated with the (R)- and (S)- enantiomers of Compound 1 were striking. […] Estimated EC50s for male and female parasites for these two enantiomers were determined (Table 2), with Compound 5 ((R)- enantiomer) having greater activity than Compound 6 ((S)- enantiomer).

[3] = tested on: adult S. mansoni worm pairs (egg production); assay: In vitro egg production of adult S. mansoni worm pairs; assay type: cell-based, Schistosoma mansoni; settings: 72 hr, compared to DMSO
Protocol: as §1, §2
As morbidity associated with schistosomiasis is caused by egg-induced granuloma formation in tissues and the subsequent development of fibrotic lesions around these granulomas, compound-mediated modulation of in vitro egg production (as a surrogate for the in vivo pathology initiator) was next assessed (Fig 3B). […] In comparison to the negative control DMSO, in which egg counts ranged from 300–594 (Average—408), all N-Acyl homoserine lactones affected fecundity.

[4] = tested on: S. aureus ATCC 29213; assay: Broth microdilution MIC and IC50 determination, S. aureus; assay type: cell-based, Staphylococcus aureus; settings: for MIC: ATCC29213, 24 h
Protocol: S. aureus ATCC 29213 and E. coli ATCC 25922 were cultured in Luria-Bertani (LB) medium at 37°C with aeration at 200 rpm for 24 hr, with all procedures performed in a biosafety level 2 (BSL2) cabinet. Stationary phase cultures were then used for minimum inhibitory concentration (MIC) determination using the broth microdilution method, in fresh LB medium, in a 96-well plate. All compounds were tested in triplicate using an initial bacterial concentration of 5.0 × 10^5 colony forming units (CFU)/mL at a final concentration of 125 mg/L (5% and 2.5% v/v methanol). Compounds with no visible growth at 125 mg/L were further evaluated with progressing dilutions. […] Dilutions were repeated in three independent experiments where the optical density (OD600) was measured in a Hidex plate spectrophotometer and absorbance data used for the calculation of an IC50 value. The IC50 value was obtained from a dose response titration (125–0.09 mg/L). Dose response curves were obtained by non-linear regression, after log transformation of concentrations and data normalization using GraphPad Prism 7.02.
As Compound 1 was structurally similar to N-acyl homoserine lactones, a compound class involved in bacterial quorum sensing, we decided to assess its antimicrobial activity and determine if enantiomer separation or lactone ring substitution would change this activity.

[5] = 7-week worms, 72 hr, motility, 95% confidence interval, read-out: ADULT WORM EC50 Female
[6] = 7-week worms, 72 hr, motility, 95% confidence interval, read-out: ADULT WORM EC50 Male
[7] = Staphylococcus aureus, 24 hr, no visible growth
[8] = Staphylococcus aureus, value in square brackets, 24 hr

Row | Compound | Selectivity index, schistosomula motility [1] | Selectivity index, schistosomula phenotype [1] | EC50 ([1]; 72 hrs) [µM] | concentrations at which schistosomula phenotype was affected ([1]; 72 hrs) | concentrations at which schistosomula motility was affected ([1]; 72 hrs) | significant reduction in adult worm motility observed down to ([2]; 72 hr) [µM] | Selectivity index, adult worm female [2] | Selectivity index, adult worm male [2] | EC50 [2, 5] [µM] | EC50 [2, 6] [µM] | EC50 ([2]; sex not stated (abstract), read-out: adult worms EC50) [µM] | effect on egg production (fecundity) [3] | egg laying significantly reduced down to concentration [3] [µM] | S. aureus MIC ([4]; 24 hr, no visible growth) [mg/L] | MIC [4, 7] [mg/L] | MIC [4, 8] [µM] | IC50 ([4]; Staphylococcus aureus, ATCC29213, Table 3, OD600, three independent experiments, 95% confidence interval in parentheses) [mg/L] | effect on schistosomula motility and phenotype metrics in initial screen ([1]; 10 μM, 72 hrs) | good compound effect on schistosomula observed down to a concentration ([1]; titration of initial hits, S1B Fig) [µM]
1 | O=C(CBr)NC1CCSC1=O (stereo not shown) [Compound 3, 2-bromo-N-(2-oxotetrahydrothiophen-3-yl)acetamide] | 9.8 | 8.1 | 2.1 | all concentrations tested | all concentrations tested | 5 | 4.8 | 4.5 | 3.9 | 4.2 | 4.8 | still affected at 1.25 μM, this was not statistically significant | 2.5 | 31.3 | 31.2 | 131 | 25.9 (≈ 109 µM) |  | 
2 | O=C(CBr)NC1CCOC1=O (stereo not shown) [Compound 1, 2-bromo-N-(2-oxotetrahydrofuran-3-yl)acetamide] | 11.5 | 7.9 | 4.7 | from 10 to 1.25 | all concentrations tested |  | 5.2 | 5.3 | 8.3 | 8.2 |  |  | 10 |  | 125 | 563 |  | negatively affected both schistosomula motility and phenotype metrics | 1.25
